Results: the NIST ThermoML archive (doi:10.1016/j.tca.2011.08.002)

Tests used:
[1] = xn = mol fraction of the nth substance listed; settings: 101 kPa, Liquid, Vibrating tube method
[2] = refractive index (Na D-line) (dimensionless); xn = mol fraction of the nth substance listed; settings: 101 kPa, Liquid, Standard Abbe refractometry

C1CCC(NC2CCCCC2)CC1 [N-cyclohexylcyclohexanamine] + CCCCCO
Settings	mass density, [1] [kg/m3]	refractive index, [2]
288.15 K, x2 = 0	915.498	1.48636
288.15 K, x2 = 0.0525	913.936	1.48486
288.15 K, x2 = 0.1	912.365	1.48356
288.15 K, x2 = 0.2006	908.415	1.47999
288.15 K, x2 = 0.2999	903.722	1.47587
288.15 K, x2 = 0.3985	898.063	1.47109
288.15 K, x2 = 0.5001	890.925	1.46523
288.15 K, x2 = 0.5999	882.166	1.45834
288.15 K, x2 = 0.6992	871.226	1.45002
288.15 K, x2 = 0.7993	857.281	1.43976
288.15 K, x2 = 0.8997	839.76	1.42718
288.15 K, x2 = 0.9495	829.611	1.41998
293.15 K, x2 = 0	911.705	1.48416
293.15 K, x2 = 0.0525	910.13	1.48266
293.15 K, x2 = 0.1	908.547	1.48135
293.15 K, x2 = 0.2006	904.561	1.47776
293.15 K, x2 = 0.2999	899.824	1.47364
293.15 K, x2 = 0.3985	894.123	1.46884
293.15 K, x2 = 0.5001	886.952	1.46298
293.15 K, x2 = 0.5999	878.178	1.4561
293.15 K, x2 = 0.6992	867.264	1.4478
293.15 K, x2 = 0.7993	853.399	1.4376
293.15 K, x2 = 0.8997	835.998	1.4251
293.15 K, x2 = 0.9495	825.915	1.41796
298.15 K, x2 = 0	907.923	1.48198
298.15 K, x2 = 0.0525	906.333	1.48047
298.15 K, x2 = 0.1	904.733	1.47916
298.15 K, x2 = 0.2006	900.708	1.47554
298.15 K, x2 = 0.2999	895.929	1.47141
298.15 K, x2 = 0.3985	890.185	1.4666
298.15 K, x2 = 0.5001	882.98	1.46073
298.15 K, x2 = 0.5999	874.191	1.45386
298.15 K, x2 = 0.6992	863.3	1.44555
298.15 K, x2 = 0.7993	849.507	1.43542
298.15 K, x2 = 0.8997	832.22	1.42299
298.15 K, x2 = 0.9495	822.199	1.41591
303.15 K, x2 = 0	904.144	1.47978
303.15 K, x2 = 0.0525	902.538	1.47828
303.15 K, x2 = 0.1	900.921	1.47694
303.15 K, x2 = 0.2006	896.855	1.47333
303.15 K, x2 = 0.2999	892.033	1.46918
303.15 K, x2 = 0.3985	886.249	1.46437
303.15 K, x2 = 0.5001	879.007	1.4585
303.15 K, x2 = 0.5999	870.203	1.45162
303.15 K, x2 = 0.6992	859.33	1.44334
303.15 K, x2 = 0.7993	845.602	1.43327
303.15 K, x2 = 0.8997	828.423	1.4209
303.15 K, x2 = 0.9495	818.461	1.41383
308.15 K, x2 = 0	900.372	1.47761
308.15 K, x2 = 0.0525	898.746	1.47608
308.15 K, x2 = 0.1	897.111	1.47475
308.15 K, x2 = 0.2006	893.001	1.47113
308.15 K, x2 = 0.2999	888.135	1.46696
308.15 K, x2 = 0.3985	882.309	1.46214
308.15 K, x2 = 0.5001	875.031	1.45627
308.15 K, x2 = 0.5999	866.208	1.44937
308.15 K, x2 = 0.6992	855.348	1.44113
308.15 K, x2 = 0.7993	841.678	1.43108
308.15 K, x2 = 0.8997	824.599	1.41881
308.15 K, x2 = 0.9495	814.694	1.41175
313.15 K, x2 = 0	896.608	1.47562
313.15 K, x2 = 0.0525	894.957	1.47406
313.15 K, x2 = 0.1	893.301	1.47258
313.15 K, x2 = 0.2006	889.146	1.4689
313.15 K, x2 = 0.2999	884.235	1.46472
313.15 K, x2 = 0.3985	878.364	1.45985
313.15 K, x2 = 0.5001	871.049	1.45396
313.15 K, x2 = 0.5999	862.207	1.44702
313.15 K, x2 = 0.6992	851.354	1.43878
313.15 K, x2 = 0.7993	837.734	1.42876
313.15 K, x2 = 0.8997	820.749	1.41655
313.15 K, x2 = 0.9495	810.896	1.40963
318.15 K, x2 = 0	892.847	1.47347
318.15 K, x2 = 0.0525	891.168	1.4719
318.15 K, x2 = 0.1	889.492	1.47041
318.15 K, x2 = 0.2006	885.287	1.46671
318.15 K, x2 = 0.2999	880.327	1.46251
318.15 K, x2 = 0.3985	874.411	1.45762
318.15 K, x2 = 0.5001	867.056	1.45172
318.15 K, x2 = 0.5999	858.189	1.4448
318.15 K, x2 = 0.6992	847.34	1.43659
318.15 K, x2 = 0.7993	833.766	1.42658
318.15 K, x2 = 0.8997	816.864	1.41445
318.15 K, x2 = 0.9495	807.06	1.40753
323.15 K, x2 = 0	889.089	1.47134
323.15 K, x2 = 0.0525	887.381	1.46975
323.15 K, x2 = 0.1	885.679	1.46826
323.15 K, x2 = 0.2006	881.423	1.46457
323.15 K, x2 = 0.2999	876.412	1.46034
323.15 K, x2 = 0.3985	870.446	1.45547
323.15 K, x2 = 0.5001	863.048	1.44954
323.15 K, x2 = 0.5999	854.154	1.44263
323.15 K, x2 = 0.6992	843.305	1.43439
323.15 K, x2 = 0.7993	829.767	1.42439
323.15 K, x2 = 0.8997	812.943	1.4123
323.15 K, x2 = 0.9495	803.186	1.40539
